Patent publication US7867512B2, “Cross-linked polymersomes and related encapsulating membranes” (The Trustees of the University of Pennsylvania, priority 1999, dated 2011)

Columns and labels:
[1] = Micropipette aspiration of vesicle membranes (bending and area expansion moduli, rupture); format: physicochemical; settings: vesicles formed by electroformation
Protocol: The tool that has been used to measure many of the material properties of bilayer vesicles is “micropipette aspiration” as applied in FIG. 2. In micropipette aspiration, the rheology and material properties of micron-sized objects are measured using glass pipettes. Small, micron diameter pipettes are used to pick up, deform and manipulate micron-sized objects, such as giant lipid vesicles. The aspiration pressure is controlled by manometers, in which the hydrostatic pressure in a reservoir connected to the micropipette is varied in relation to a fixed reference. Pressure may be varied with a resolution of microns of H2O (or 10^−6 atm).
A deformable object is aspirated using a pressure driving force (or suction pressure), ΔP, and the object is drawn within the pipette to a projection length LP. […] The bending modulus is measured by exerting small tensions on the membrane, to smooth out thermally-driven surface undulations. […]
Analogous to a lipid bilayer, at low but increasing aspiration pressures, the thermally undulating polymersome membrane was progressively smoothed, increasing the projected area logarithmically with tension, τ, (FIG. 3A). From the slope of this increase (in tension units of mN/m) versus the fractional change, α, in vesicle area the bending modulus, Kb, was calculated (see, e.g., Evans et al., Phys. Rev. Lett. 64:2094 (1990); Helfrich et al., Nuovo Cimento D3:137 (1984)). […]

[2] = Lipid probe incorporation and diffusivity by laser-photobleaching; format: physicochemical
Source text: In the same way, mixtures can be made of the copolymer amphiphiles with other synthetic or non-synthetic amphiphiles, such as, lipids or proteins. […] FIGS. 6A and 6B show the uniformity of fluorescence around an aspirated contour of membrane with 3 mol % mixed in with polymer before vesicle formation.

CCCCCCCC/C=C\CCCCCCCC(=O)O[C@H](COC(=O)CCCCCCCCCCCCCCCCC)COP(=O)([O-])OCC[N+](C)(C)C [SOPC, 1-stearoyl-2-oleoyl phosphatidylcholine]
Ka, elastic modulus for area expansion [1]: ~180 mN/m | lipid probe diffusivity [2]: approximately 3×10^−8 cm^2/s
